Tested on: NK1 and NK2 receptors
Assay: Modulation of respiratory effects produced by capsaicin aerosol in conscious guinea pigs
Type: in vivo, guinea pig
Conditions: for dyspnea onset / maximum pressure increase: capsaicin aerosol; for dyspnea onset / maximum pressure increase / SRE number (coughs/gasps): mean and SEM; for SRE number (coughs/gasps): during 19 min capsaicin exposure; for dyspnea incidence: i.v. 20 min prior to capsaicin aerosol (0.001%)
Description: In vivo experiments were performed using male Duncan Hartley guinea pigs (250-350g). Changes in conscious breathing patterns were monitored in four animals simultaneously using modified whole body plethysmography consisting of four small plexiglass boxes each connected to a reference box via Validyne DP 45-16 differential pressure transducers. The 4 boxes were equipped with an air supply line (also used for aerosol delivery) and an exhaust air line. Supply and exhaust lines were of the same length and narrow bore and arose from a common supply chamber and vented to a common exhaust chamber. This system was used to ensure that fluctuations in supply air and atmospheric pressure would remain in phase and be eliminated from the net signal by the differential pressure transducers. The analog pressure signals were digitalized via a Data Translation DT2821 A to D board. Data were collected at a rate of 100 samples/second/animal. Each cycle of pressure change was analyzed using the following parameters: rising and falling slope determined between minimum and maximum pressures, the ratio of rising over falling slope, and the magnitude of the change between initial trough pressure and peak cycle pressure. Using these values (and observing the animals) the pressure cycles were characterized into normal breaths, forced exhalations (apparent by abdominal heaving), significant respiratory events (SREs; usually coughs, less often sneezes or gasps which were characterized by transient, extremely large pressure increases which were distinguishable from noise) and movement/noise with a PCAT 286 running a System V UNIX operating system. Dyspnea was defined as a significant, sustained increase in plethysmograph pressure which was associated with an observable shift to labored breathing in the animal.
During the course of a typical experiment in which airway responsiveness to various bronchoconstricting agents was examined, aerosols were delivered for 19 min (0.33 ml/min) using a DeVilbiss Ultraneb 99 ultrasonic nebulizer and animals monitored during this time. Prior to nebulization, 1 min of resting breathing was collected to establish a baseline pressure. […] The vehicle for nebulization of all bronchoconstrictive agents was phosphate buffered saline (pH 7.4) which elicited no respiratory effects itself. Putative tachykinin antagonists were administered either (i.v.) 20 min prior to onset of aerosol exposure or orally 1 hour prior to onset (to guinea pigs after an overnight fast).
Capsaicin aerosol is known to promote release of the tachykinins SP and NKA from sensory nerves in the airways of guinea pigs which may then act upon NK1 and NK2 receptors, respectively to elicit respiratory effects.

## COc1cc(C(=O)N2CCC(CCN3CCC(C(N)=O)(c4ccccc4)CC3)(c3ccc(Cl)c(Cl)c3)C2)cc(OC)c1OC.Cl (single isomer, unassigned; (+)) [Example 20A, (+)-1-[2-[3-(3,4-dichloro-phenyl)-1-(3,4,5-trimethoxy-benzoyl)-pyrrolidin-3-yl]-ethyl]-4-phenyl-piperidine-4-carboxylic acid amide hydrochloride]
1 mg/kg i.v.
  dyspnea onset: 331 ± 22 s
  maximum pressure increase: 1.0 ± 0.1 mmH2 O
  SRE number (coughs/gasps): 9.9 ± 2.7
1 mg/kg
  dyspnea incidence: 77.8%
2.5 mg/kg i.v.
  dyspnea onset: 426 ± 57 s
  maximum pressure increase: 0.6 ± 0.1 mmH2 O
  SRE number (coughs/gasps): 8.3 ± 1.6
2.5 mg/kg
  dyspnea incidence: 100%
5 mg/kg i.v.
  dyspnea onset: 597 ± 186 s
  maximum pressure increase: 0.8 ± 0.06 mmH2 O
  SRE number (coughs/gasps): 4.4 ± 1.9
5 mg/kg
  dyspnea incidence: 44.4%
10 mg/kg i.v.
  dyspnea onset: 592 ± 71 s
  maximum pressure increase: 0.8 ± 0.1 mmH2 O
  SRE number (coughs/gasps): 3.3 ± 1.1
10 mg/kg
  dyspnea incidence: 55.6%
intravenous
  effect on capsaicin-induced respiratory effects (in words): attenuate capsaicin-induced respiratory effects

Reference: patent US5635510A, “Substituted pyrrolidin-3-yl-alkyl-piperidines” (Merrell Pharmaceuticals Inc., priority 1994, dated 1997)
